Inhibition data for 20 compounds are collected here from US10800754B2, “Heterocyclic amide compound” (TAKEDA PHARMACEUTICAL COMPANY LIMITED, priority 2016, dated 2020).

Experiment [1] addresses T1, human PRS protein (Homo sapiens, UniProt P07814).
T1 construct: to construct His-Avi-hEPRS (998-1512) expression plasmid; His tag (N); Avi tag (N); TEV cleavage site (ENLYFQ/GS, encoded by forward primer hEPRS-TEV-NheF) (N); made in house; host or cells: E. coli BL21(DE3)
T1 sequence (P07814 998-1512): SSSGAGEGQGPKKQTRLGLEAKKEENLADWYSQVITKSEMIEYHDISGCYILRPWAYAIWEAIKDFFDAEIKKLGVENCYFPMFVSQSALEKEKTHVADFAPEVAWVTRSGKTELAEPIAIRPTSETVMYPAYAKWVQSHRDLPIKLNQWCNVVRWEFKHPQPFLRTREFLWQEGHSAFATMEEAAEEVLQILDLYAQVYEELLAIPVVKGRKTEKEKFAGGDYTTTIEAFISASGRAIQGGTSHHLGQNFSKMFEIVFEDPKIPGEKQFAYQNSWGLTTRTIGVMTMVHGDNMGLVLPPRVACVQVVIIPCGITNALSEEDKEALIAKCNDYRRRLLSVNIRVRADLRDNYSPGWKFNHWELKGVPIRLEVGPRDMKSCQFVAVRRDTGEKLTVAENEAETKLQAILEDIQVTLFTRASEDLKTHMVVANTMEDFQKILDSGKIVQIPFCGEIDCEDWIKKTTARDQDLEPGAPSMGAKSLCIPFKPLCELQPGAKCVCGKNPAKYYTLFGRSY
The experiment can be described thus: PRS inhibitory activity (ATP/[32P]pyrophosphate exchange enzyme reaction). The note with it: 300 nM test compound; recombinant human PRS (EPRS 998-1512); read-out: inhibitory rate (%) of PRS. In kind it is biochemical. Put shortly:
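His-Avi-tagged human EPRS catalytic domain (998-1512), E. coli-expressed, was preincubated 60 min with compound (enzyme added as 40 nM solution) in Tris pH 7.5, KCl, DTT, Tween 20 and MgCl2. The substrate solution contained 300 μM ATP, 160 μM L-proline, and 400 μM pyrophosphate with [32P]pyrophosphate; reaction ran 30 min at room temperature. Charcoal-captured label was counted, with enzyme-free wells taken as 100% inhibition.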

Experiment [2] has as its system human ovarian cancer cell A2780. The experiment is described as follows: proliferation inhibitory activity against A2780 cells (CellTiter-Glo). In kind it is cell-based. Conditions: A2780, 72 h, 1 μM test compound, 3 days of culture, read-out: proliferation inhibitory rate (%) of A2780 cells. On the procedure: The proliferation inhibitory activity of the compound of the present invention against human ovarian cancer cell A2780 was evaluated by the following method.
Human ovarian cancer cells A2780 were seeded in a 384 well culture plate at 1000 cells in 30 μL of medium per well by using RPMI-1640 medium (Wako Pure Chemical Industries, Ltd.) containing 10% fetal bovine serum and penicillin/streptomycin. The next day, 10 μL of RPMI-1640 medium containing the test compound was added to the cells. After 3 days of culture, 20 μL of CellTiter-Glo Luminescent Cell Viability Assay solution (Promega, Fitchburg, Wis., US) was added. The luminescence signal was measured using EnVision (PerkinElmer, Waltham, Mass., US) and the inhibitory rate (%) of the test compound was calculated with a well free of seeding of cell as 100% inhibition.

As for `N#C[C@@]1(C2CC2)CCN(c2ccnc(NC(=O)Cc3cccc(-c4cnn(CC5COCCO5)c4)c3)c2)C1=O` (stereo partly drawn) [Example 85, N-(4-((3S)-3-cyano-3-cyclopropyl-2-oxopyrrolidin-1-yl)pyridin-2-yl)-2-(3-(1-(1,4-dioxan-2-ylmethyl)-1H-pyrazol-4-yl)phenyl)acetamide], in experiment [1], the inhibition at 0.3 µM came out at 99%. Besides, the inhibition at 1 µM in experiment [2] turned out to be 54%.

On to `CCc1cc(N2CC[C@@](C#N)(C3CC3)C2=O)cc(NC(=O)Cc2cc(F)cc(-c3cnn(C)c3)c2)n1` [Example 99, N-(4-((3S)-3-cyano-3-cyclopropyl-2-oxopyrrolidin-1-yl)-6-ethylpyridin-2-yl)-2-(3-fluoro-5-(1-methyl-1H-pyrazol-4-yl)phenyl)acetamide], for which, in experiment [1], the inhibition at 0.3 µM was 99%. In addition, in experiment [2], the inhibition at 1 µM is 70%.

As for `N#C[C@@]1(C2CC2)CCN(c2ccnc(NC(=O)Cc3cccc(-c4cnn(C5CCOC5)c4)c3)c2)C1=O` (stereo partly drawn) [Example 94, N-(4-((3S)-3-cyano-3-cyclopropyl-2-oxopyrrolidin-1-yl)pyridin-2-yl)-2-(3-(1-(tetrahydrofuran-3-yl)-1H-pyrazol-4-yl)phenyl)acetamide], the inhibition at 0.3 µM in experiment [1] was 100%. Moreover, in experiment [2], the inhibition at 1 µM came out at 74%.

On to `N#C[C@@]1(C2CC2)CCN(c2ccnc(NC(=O)Cc3cccc(-c4cnn(CC(F)F)c4)c3)c2)C1=O` [Example 38, N-(4-((3S)-3-cyano-3-cyclopropyl-2-oxopyrrolidin-1-yl)pyridin-2-yl)-2-(3-(1-(2,2-difluoroethyl)-1H-pyrazol-4-yl)phenyl)acetamide], for which, in experiment [1], the inhibition at 0.3 µM stood at 100%. Also, in experiment [2], the inhibition at 1 µM worked out at 88%.

Consider `N#C[C@@]1(C2CC2)CCN(c2ccnc(NC(=O)Cc3cccc(-c4cnn(C(F)F)c4)c3)c2)C1=O` [Example 44, N-(4-((3S)-3-cyano-3-cyclopropyl-2-oxopyrrolidin-1-yl)pyridin-2-yl)-2-(3-(1-(difluoromethyl)-1H-pyrazol-4-yl)phenyl)acetamide], for which the inhibition at 0.3 µM in experiment [1] was determined as 100%. Further, the inhibition at 1 µM in experiment [2] was found to be 86%.

Consider `CC(C)n1cc(-c2cccc(CC(=O)Nc3cc(N4CC[C@@](C#N)(C5CC5)C4=O)ccn3)c2)cn1` [Example 93, N-(4-((3S)-3-cyano-3-cyclopropyl-2-oxopyrrolidin-1-yl)pyridin-2-yl)-2-(3-(1-isopropyl-1H-pyrazol-4-yl)phenyl)acetamide], for which the inhibition at 0.3 µM in experiment [1] is 100%. For the same compound, in experiment [2], the inhibition at 1 µM was found to be 76%.

On to `Cc1cc(N2CC[C@@](C#N)(C3CC3)C2=O)cc(NC(=O)Cc2cc(F)cc(-c3ccc(=O)n(C)c3)c2)n1` [Example 60, N-(4-((3S)-3-cyano-3-cyclopropyl-2-oxopyrrolidin-1-yl)-6-methylpyridin-2-yl)-2-(3-fluoro-5-(1-methyl-6-oxo-1,6-dihydropyridin-3-yl)phenyl)acetamide], for which the inhibition at 0.3 µM in experiment [1] amounted to 99%. Also, in experiment [2], the inhibition at 1 µM was found to be 97%.

Regarding `N#C[C@@]1(C2CC2)CCN(c2ccnc(NC(=O)Cc3cccc(-c4cnn(CC5CC5(F)F)c4)c3)c2)C1=O` (stereo partly drawn) [Example 78, N-(4-((3S)-3-cyano-3-cyclopropyl-2-oxopyrrolidin-1-yl)pyridin-2-yl)-2-(3-(1-((2,2-difluorocyclopropyl)-methyl)-1H-pyrazol-4-yl)phenyl)acetamide], the inhibition at 0.3 µM in experiment [1] amounted to 100%. Further, the inhibition at 1 µM in experiment [2] was 80%.

As for `Cn1ccc(-c2cccc(CC(=O)Nc3cc(N4CC[C@@](C#N)(C5CC5)C4=O)ccn3)c2)cc1=O` [Example 51, N-(4-((3S)-3-cyano-3-cyclopropyl-2-oxopyrrolidin-1-yl)pyridin-2-yl)-2-(3-(1-methyl-2-oxo-1,2-dihydropyridin-4-yl)phenyl)acetamide], the inhibition at 0.3 µM in experiment [1] was determined as 99%. The inhibition at 1 µM in experiment [2] was 52%.

For `N#C[C@@]1(C2CC2)CCN(c2ccnc(NC(=O)Cc3cccc(-c4cnn(C5CC5)c4)c3)c2)C1=O` [Example 42, N-(4-((3S)-3-cyano-3-cyclopropyl-2-oxopyrrolidin-1-yl)pyridin-2-yl)-2-(3-(1-cyclopropyl-1H-pyrazol-4-yl)phenyl)acetamide], the inhibition at 0.3 µM in experiment [1] was determined as 100%. In experiment [2], the inhibition at 1 µM stood at 84%.

`Cc1cc(N2CC[C@@](C#N)(C3CC3)C2=O)cc(NC(=O)Cc2cccc(-c3cn(C)nc3C)c2)n1` [Example 102, N-(4-((3S)-3-cyano-3-cyclopropyl-2-oxopyrrolidin-1-yl)-6-methylpyridin-2-yl)-2-(3-(1,3-dimethyl-1H-pyrazol-4-yl)phenyl)acetamide]: in experiment [1], the inhibition at 0.3 µM turned out to be 100%. Also, the inhibition at 1 µM in experiment [2] was determined as 89%.

Regarding `N#C[C@@]1(C2CC2)CCN(c2ccnc(NC(=O)Cc3cccc(-c4cnn(CCCC(F)(F)F)c4)c3)c2)C1=O` [Example 90, N-(4-((3S)-3-cyano-3-cyclopropyl-2-oxopyrrolidin-1-yl)pyridin-2-yl)-2-(3-(1-(4,4,4-trifluorobutyl)-1H-pyrazol-4-yl)phenyl)acetamide], in experiment [1], the inhibition at 0.3 µM was 98%. In addition, in experiment [2], the inhibition at 1 µM worked out at 61%.

Take `N#C[C@@]1(C2CC2)CCN(c2ccnc(NC(=O)Cc3cccc(-c4cnn(CCO)c4)c3)c2)C1=O` [Example 67, N-(4-((3S)-3-cyano-3-cyclopropyl-2-oxopyrrolidin-1-yl)pyridin-2-yl)-2-(3-(1-(2-hydroxyethyl)-1H-pyrazol-4-yl)phenyl)acetamide]: in experiment [1], the inhibition at 0.3 µM is 100%. Further, the inhibition at 1 µM in experiment [2] was 77%.

Regarding `Cn1cc(-c2cc(F)cc(CC(=O)Nc3cc(N4CC[C@@](C#N)(C5CC5)C4=O)cc(Br)n3)c2)cn1` [Example 97, N-(6-bromo-4-((3S)-3-cyano-3-cyclopropyl-2-oxopyrrolidin-1-yl)pyridin-2-yl)-2-(3-fluoro-5-(1-methyl-1H-pyrazol-4-yl)phenyl)acetamide], in experiment [1], the inhibition at 0.3 µM stood at 100%. Further, in experiment [2], the inhibition at 1 µM stood at 97%.

With `N#C[C@@]1(C2CC2)CCN(c2ccnc(NC(=O)Cc3cccc(-c4cnn(CC5CC5)c4)c3)c2)C1=O` [Example 64, N-(4-((3S)-3-cyano-3-cyclopropyl-2-oxopyrrolidin-1-yl)pyridin-2-yl)-2-(3-(1-(cyclopropylmethyl)-1H-pyrazol-4-yl)phenyl)acetamide], the inhibition at 0.3 µM in experiment [1] was determined as 99%. The inhibition at 1 µM in experiment [2] was determined as 79%.

As to `Cn1cc(-c2cc(F)cc(CC(=O)Nc3cc(N4CC[C@@](C#N)(C5CC5)C4=O)ccn3)c2)cn1` [Example 35, N-(4-((3S)-3-cyano-3-cyclopropyl-2-oxopyrrolidin-1-yl)pyridin-2-yl)-2-(3-fluoro-5-(1-methyl-1H-pyrazol-4-yl)phenyl)acetamide], in experiment [1], the inhibition at 0.3 µM is 102%. For the same compound, in experiment [2], the inhibition at 1 µM was 97%.

Consider `Cn1cc(-c2cccc(CC(=O)Nc3cc(N4CC[C@@](C#N)(C5CC5)C4=O)ccn3)c2)cn1` [Example 26, N-(4-((3S)-3-cyano-3-cyclopropyl-2-oxopyrrolidin-1-yl)pyridin-2-yl)-2-(3-(1-methyl-1H-pyrazol-4-yl)phenyl)acetamide], for which the inhibition at 0.3 µM in experiment [1] stood at 100%. Further, the inhibition at 1 µM in experiment [2] came out at 92%.

Take `Cn1cc(-c2cccc(CC(=O)Nc3cc(N4CC[C@@](C#N)(C5CC5)C4=O)ccn3)c2)nn1` [Example 47, N-(4-((3S)-3-cyano-3-cyclopropyl-2-oxopyrrolidin-1-yl)pyridin-2-yl)-2-(3-(1-methyl-1H-1,2,3-triazol-4-yl)phenyl)acetamide]: the inhibition at 0.3 µM in experiment [1] amounted to 99%. Moreover, the inhibition at 1 µM in experiment [2] is 66%.

In the case of `N#CCCCn1cc(-c2cccc(CC(=O)Nc3cc(N4CC[C@@](C#N)(C5CC5)C4=O)ccn3)c2)cn1` [Example 71, N-(4-((3S)-3-cyano-3-cyclopropyl-2-oxopyrrolidin-1-yl)pyridin-2-yl)-2-(3-(1-(3-cyanopropyl)-1H-pyrazol-4-yl)phenyl)acetamide], the inhibition at 0.3 µM in experiment [1] was 99%. In addition, the inhibition at 1 µM in experiment [2] stood at 69%.

With `Cc1ncc(-c2cccc(CC(=O)Nc3cc(N4CC[C@@](C#N)(C5CC5)C4=O)ccn3)c2)s1` [Example 45, N-(4-((3S)-3-cyano-3-cyclopropyl-2-oxopyrrolidin-1-yl)pyridin-2-yl)-2-(3-(2-methyl-1,3-thiazol-5-yl)phenyl)acetamide], the inhibition at 0.3 µM in experiment [1] was found to be 97%. Moreover, the inhibition at 1 µM in experiment [2] amounted to 76%.
